Tests used:
[1] = target: human SOS1 (loading of human K-Ras^G12C-GDP with fluorescent GTP-analog) (Homo sapiens, UniProt Q07889); assay: Biochemical assay 3: K-Ras^G12C activation assay by hSOS1 (HTRF); details: E-notation values; unit inferred; read-out: Assay 3 (KRAS-Activation) IC50
[2] = target: Epidermal Growth Factor Receptor (EGFR) (Homo sapiens (Human), UniProt P00533); assay: EGFR kinase assay (TR-FRET); assay type: biochemical; details: E-notation values; unit inferred; read-out: EGFR-assay IC50
Method in brief: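 EGFR purified from A431 cells was preincubated with compound 15 min at 22° C in pH 7.0 Hepes buffer with MgCl2, MnCl2 and vanadate before reaction with a biotinylated peptide. After EDTA stop, phosphopeptide was detected by TR-FRET (anti-phosphotyrosine Tb-cryptate, streptavidin-XL665) as the 665/620 nm emission ratio.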

Chain of Epidermal Growth Factor Receptor (EGFR) (P00533 25-1210): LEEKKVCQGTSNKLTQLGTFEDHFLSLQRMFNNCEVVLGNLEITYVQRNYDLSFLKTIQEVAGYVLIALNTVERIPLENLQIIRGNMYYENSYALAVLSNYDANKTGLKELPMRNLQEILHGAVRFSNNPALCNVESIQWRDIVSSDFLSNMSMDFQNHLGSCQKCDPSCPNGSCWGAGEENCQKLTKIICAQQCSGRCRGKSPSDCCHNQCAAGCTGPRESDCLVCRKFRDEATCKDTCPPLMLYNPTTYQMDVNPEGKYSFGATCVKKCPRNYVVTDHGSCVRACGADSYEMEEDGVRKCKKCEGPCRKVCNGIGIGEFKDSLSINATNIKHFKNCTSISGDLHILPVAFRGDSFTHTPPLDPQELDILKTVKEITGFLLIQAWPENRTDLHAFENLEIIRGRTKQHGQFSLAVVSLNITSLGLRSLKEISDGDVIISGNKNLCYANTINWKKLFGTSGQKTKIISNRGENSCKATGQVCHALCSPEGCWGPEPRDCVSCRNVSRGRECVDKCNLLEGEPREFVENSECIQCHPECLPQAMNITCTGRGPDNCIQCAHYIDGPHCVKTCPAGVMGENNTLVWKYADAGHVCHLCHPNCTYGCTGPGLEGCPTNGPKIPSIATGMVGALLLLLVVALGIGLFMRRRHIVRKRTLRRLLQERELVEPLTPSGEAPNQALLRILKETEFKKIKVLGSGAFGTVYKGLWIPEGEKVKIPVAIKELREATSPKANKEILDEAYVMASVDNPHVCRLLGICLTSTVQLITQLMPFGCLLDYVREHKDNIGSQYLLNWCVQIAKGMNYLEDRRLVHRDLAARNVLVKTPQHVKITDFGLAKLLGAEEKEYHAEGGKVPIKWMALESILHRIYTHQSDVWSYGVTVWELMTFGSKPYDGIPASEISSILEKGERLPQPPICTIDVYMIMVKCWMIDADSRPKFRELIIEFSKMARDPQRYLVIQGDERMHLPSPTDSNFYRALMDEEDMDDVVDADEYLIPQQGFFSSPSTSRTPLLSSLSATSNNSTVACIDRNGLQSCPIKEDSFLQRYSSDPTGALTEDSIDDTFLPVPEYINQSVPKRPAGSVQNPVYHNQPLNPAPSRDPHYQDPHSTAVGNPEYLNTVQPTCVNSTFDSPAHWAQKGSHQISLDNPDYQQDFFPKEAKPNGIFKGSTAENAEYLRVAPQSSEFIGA

COc1cc2nc(C)nc(N[C@H](C)c3cccc(-c4ccnc(O)c4)c3)c2cc1OC [Example 388, 4-(3-{(1R)-1-[(6,7-dimethoxy-2-methylquinazolin-4-yl)amino]ethyl}phenyl)pyridin-2-ol]
IC50 [1]: 757 nM | IC50 [2]: > 20000 nM

COc1cc2nc(C)nc(NC(C)c3cccc(OCc4ccccc4)c3)c2cc1OC (stereo not shown) [Example 389, N-{1-[3-(benzyloxy)phenyl]ethyl}-6,7-dimethoxy-2-methylquinazolin-4-amine]
IC50 [1]: 16900 nM | IC50 [2]: > 20000 nM

Cc1nc(N[C@H](C)c2cccc(Cl)c2)c2cc(C(C)(C)O)ccc2n1 [Example 392, 2-(4-{[(1R)-1-(3-chlorophenyl)ethyl]amino}-2-methylquinazolin-6-yl)propan-2-ol]
IC50 [1]: 1520 nM | IC50 [2]: > 20000 nM

COc1cc2nc(C)nc(N[C@H](C)c3cccc(-c4ccccc4CC(N)=O)c3)c2cc1OC [Example 393, 2-(3′-{(1R)-1-[(6,7-dimethoxy-2-methylquinazolin-4-yl)amno]ethyl}biphenyl-2-yl)acetamide]
IC50 [1]: 1040 nM | IC50 [2]: > 20000 nM

COc1cc2nc(C)nc(NC(C)c3ccc(-c4ccccc4CC(N)=O)s3)c2cc1OC (stereo not shown) [Example 394, 2-[2-(5-{1-[(6,7-dimethoxy-2-methylquinazolin-4-yl)amino]ethyl}thiophen-2-yl)phenyl]acetamide]
IC50 [1]: 2290 nM | IC50 [2]: > 20000 nM

COc1cc2nc(C)nc(NC(C)c3ccc(-c4ccc(O)nc4)s3)c2cc1OC (stereo not shown) [Example 395, 5-(5-{1-[(6,7-dimethoxy-2-methylquinazolin-4-yl)amino]ethyl}thiophen-2-yl)pyridin-2-ol]
IC50 [1]: 1020 nM | IC50 [2]: 7070 nM

COc1cc(C)c2nc(C)nc(N[C@H](C)c3cccc(Cl)c3)c2c1 [Example 396, N-[(1R)-1-(3-chlorophenyl)ethyl]-6-methoxy-2,8-dimethylquinazolin-4-amine]
IC50 [1]: 3130 nM | IC50 [2]: > 20000 nM

COc1cc2nc(C)nc(NC(C)c3ccc(-c4cccc(Cl)c4CN)s3)c2cc1OC (stereo not shown) [Example 397, N-[1-{5-[2-(aminomethyl)-3-chlorophenyl]thiophen-2-yl}ethyl]-6,7-dimethoxy-2-methylquinazolin-4-amine]
IC50 [1]: 249 nM | IC50 [2]: > 20000 nM

COc1cc2nc(C)nc(NC(C)c3ccc(-c4ccc(Cl)cc4CN)s3)c2cc1OC (stereo not shown) [Example 398, N-[1-{5-[2-(aminomethyl)-4-chlorophenyl]thiophen-2-yl}ethyl]-6,7-dimethoxy-2-methylquinazolin-4-amine]
IC50 [1]: 72.1 nM | IC50 [2]: > 20000 nM

COc1cc2nc(C)nc(NC(C)c3cc(C)c(-c4ccc(F)cc4CN)s3)c2cc1OC (stereo not shown) [Example 399, N-(1-{5-[2-(aminomethyl)-4-fluorophenyl]-4-methyl-2-thienyl}ethyl)-6,7-dimethoxy-2-methylquinazolin-4-amine]
IC50 [1]: 296 nM | IC50 [2]: > 20000 nM

COc1cc2nc(C)nc(NC(C)c3cc(C)c(-c4ccccc4CN(C)C)s3)c2cc1OC (stereo not shown) [Example 400, N-[1-(5-{2-[(dimethylamino)methyl]phenyl}-4-methyl-2-thienyl)ethyl]-6,7-dimethoxy-2-methylquinazolin-4-amine]
IC50 [1]: 76.6 nM | IC50 [2]: > 20000 nM

COc1cc2nc(C)nc(NC(C)c3cc(C)c(-c4ccccc4CN(C)CCO)s3)c2cc1OC (stereo not shown) [Example 401, 2-{[2-(5-{1-[(6,7-dimethoxy-2-methylquinazolin-4-yl)amino]ethyl}-3-methyl-2-thienyl)benzyl](methyl)amino}ethanol]
IC50 [1]: 82.3 nM | IC50 [2]: > 20000 nM

CNCc1ccccc1-c1sc(C(C)Nc2nc(C)nc3cc(OC)c(OC)cc23)cc1C (stereo not shown) [Example 402, 6,7-di methoxy-2-methyl-N-[1-(4-methyl-5-{2-[(methylamino)methyl]phenyl}thiophen-2-yl)ethyl]quinazolin-4-amine]
IC50 [1]: 98.1 nM | IC50 [2]: > 20000 nM

COc1cc2nc(C)nc(NC(C)c3ccc(-c4ccccc4C(O)CO)s3)c2cc1OC (stereo not shown) [Example 403]
IC50 [1]: 632 nM | IC50 [2]: > 20000 nM

Source: patent US20240083857A1, “2-Methyl-Quinazolines” (Bayer Pharma Aktiengesellschaft, priority 2017, published 2024)
